Data from patent US8741884B2, “Compounds for the treatment of hepatitis C” (priority 2010, dated 2014).

test system: HCV pseudoparticles (genotype 1a HCV E1 and E2 envelope, H77C isolate); assay: microbe, parasite or virus in culture; assay type: cell-based; conditions: Hepatitis C virus, Huh-7, 48 h, class symbol; HCV pseudoparticles genotype 1a (H77C), Huh7 cells, luciferase 2 days after infection, average of duplicates

Structure (SMILES)	EC50
O=C1NCCCCCCNc2nc(nc(OCC(F)(F)F)n2)Nc2cccc1c2 [Example 1001]	1000 to 50000 nM
COc1nc2nc(n1)OCc1cccc(c1)Nc1nc(nc(OCC(F)(F)F)n1)NCCN2 [Example 1002]	1000 to 50000 nM
C=C1COc2ccc(cc2)CNc2nc(nc(OCC(F)(F)F)n2)Nc2ccc(C(=O)O)c(c2)OC1 [Example 1005]	1000 to 50000 nM
C=C1COc2ccc(cc2)CNc2nc(nc(OCC(F)(F)F)n2)Nc2ccc(C(=O)NCC3(CN4CCCC4)CC3)c(c2)OC1 [Example 1006]	1000 to 50000 nM
COC(=O)c1ccc2cc1OCCOCCOCCOc1ccc(cc1)CNc1nc(nc(OCC(F)(F)F)n1)N2 [Example 1007]	1000 to 50000 nM
CN(C)CC(C)(C)CNC(=O)c1ccc2cc1OCCCCCOc1ccc(cc1)CNc1nc(nc(OCC(F)(F)F)n1)N2 [Example 1009]	0.1 to 100 nM
CN(C)CC(C)(C)CNC(=O)c1ccc2cc1OCCCCCCCCOc1ccc(cc1)CNc1nc(nc(OCC(F)(F)F)n1)N2 [Example 1010]	0.1 to 100 nM
CN(C)CC(C)(C)CNC(=O)c1ccc2cc1OCCOCCOCCOc1ccc(cc1)CNc1nc(nc(OCC(F)(F)F)n1)N2 [Example 1011]	0.1 to 100 nM
CC(C)(C)OC(=O)N1CCCC(NC(=O)c2ccc3cc2OCCCCCCCCOc2ccc(cc2)CNc2nc(nc(OCC(F)(F)F)n2)N3)C1 (centres unmarked) [Example 1012]	0.1 to 100 nM
O=C(NC1CCCNC1)c1ccc2cc1OCCCCCCCCOc1ccc(cc1)CNc1nc(nc(OCC(F)(F)F)n1)N2 (centres unmarked) [Example 1013]	0.1 to 100 nM
O=C1NCCNc2nc(nc(OCC(F)(F)F)n2)Nc2cccc(c2)CNC(=O)OCCO1 [Example 1014]	1000 to 50000 nM
O=C1COCC(=O)NCc2cccc(c2)Nc2nc(nc(OCC(F)(F)F)n2)NCCN1 [Example 1015]	1000 to 50000 nM
COC(=O)CCNC(=O)c1ccc2cc1OCCCCCCCCOc1ccc(cc1)CNc1nc(nc(OCC(F)(F)F)n1)N2 [Example 1017]	100 to 1000 nM
CC(C)(C)OC(=O)NC1(C(=O)O)CCN(C(=O)c2ccc3cc2OCCCCCCCCOc2ccc(cc2)CNc2nc(nc(OCC(F)(F)F)n2)N3)C1 (centres unmarked) [Example 1018]	1000 to 50000 nM
CN(C)CC(C)(C)CNC(=O)c1ccc2cc1OCCCC(O)C(O)CCCOc1ccc(cc1)CNc1nc(nc(OCC(F)(F)F)n1)N2 (centres unmarked) [Example 1022]	0.1 to 100 nM
COC(=O)CCCNC(=O)c1ccc2cc1OCCCCCCCCOc1ccc(cc1)CNc1nc(nc(OCC(F)(F)F)n1)N2 [Example 1101]	0.1 to 100 nM
O=C(NCC1(CN2CCCC2)CC1)c1ccc2cc1OCCCCCCCCOc1ccc(cc1)CNc1nc(nc(OCC(F)(F)F)n1)N2 [Example 1102]	0.1 to 100 nM
COC(=O)CC1CCN(C(=O)c2ccc3cc2OCCCCCCCCOc2ccc(cc2)CNc2nc(nc(OCC(F)(F)F)n2)N3)C1 (centres unmarked) [Example 1103]	1000 to 50000 nM
COC(=O)CNC(=O)c1ccc2cc1OCCCCCCCCOc1ccc(cc1)CNc1nc(nc(OCC(F)(F)F)n1)N2 [Example 1104]	100 to 1000 nM
CC(C)(C)OC(=O)N1CCC(CNC(=O)c2ccc3cc2OCCCCCCCCOc2ccc(cc2)CNc2nc(nc(OCC(F)(F)F)n2)N3)C1 (centres unmarked) [Example 1105]	0.1 to 100 nM
COC(=O)C(NC(=O)c1ccc2cc1OCCCCCCCCOc1ccc(cc1)CNc1nc(nc(OCC(F)(F)F)n1)N2)C1CCCN(C(=O)OC(C)(C)C)C1 (centres unmarked) [Example 1106]	0.1 to 100 nM
N=C(N)CNC(=O)c1ccc2cc1OCCCCCCCCOc1ccc(cc1)CNc1nc(nc(OCC(F)(F)F)n1)N2 [Example 1107]	0.1 to 100 nM
CC(C)(C)OC(=O)N1CCC2(CCN(C(=O)c3ccc4cc3OCCCCCCCCOc3ccc(cc3)CNc3nc(nc(OCC(F)(F)F)n3)N4)C2)C1 (centres unmarked) [Example 1109]	100 to 1000 nM
O=C(O)CNC(=O)c1ccc2cc1OCCCCCCCCOc1ccc(cc1)CNc1nc(nc(OCC(F)(F)F)n1)N2 [Example 1131]	100 to 1000 nM
O=C(O)CC1CCN(C(=O)c2ccc3cc2OCCCCCCCCOc2ccc(cc2)CNc2nc(nc(OCC(F)(F)F)n2)N3)C1 (centres unmarked) [Example 1132]	1000 to 50000 nM
O=C(CNC(=O)c1ccc2cc1OCCCCCCCCOc1ccc(cc1)CNc1nc(nc(OCC(F)(F)F)n1)N2)NS(=O)(=O)C1CC1 [Example 1133]	100 to 1000 nM

Structure (SMILES)	EC50
O=C(NCC1CCNC1)c1ccc2cc1OCCCCCCCCOc1ccc(cc1)CNc1nc(nc(OCC(F)(F)F)n1)N2 (centres unmarked) [Example 1151]	0.1 to 100 nM
COC(=O)C(NC(=O)c1ccc2cc1OCCCCCCCCOc1ccc(cc1)CNc1nc(nc(OCC(F)(F)F)n1)N2)C1CCCNC1 (centres unmarked) [Example 1152]	0.1 to 100 nM
O=C(c1ccc2cc1OCCCCCCCCOc1ccc(cc1)CNc1nc(nc(OCC(F)(F)F)n1)N2)N1CCC2(CCNC2)C1 (centres unmarked) [Example 1153]	100 to 1000 nM
CN(C)CC(C)(C)CNC(=O)c1ccc2cc1OCCCCCCCOc1ccc(cc1)CNc1nc(nc(OCC(F)(F)F)n1)N2 [Example 1201]	0.1 to 100 nM
CN(C)CC(C)(C)CNC(=O)c1ccc2cc1OCCCCCCOc1ccc(cc1)CNc1nc(nc(OCC(F)(F)F)n1)N2 [Example 1202]	0.1 to 100 nM
COC(=O)c1ccc2cc1OCCCCCCOc1ccc(cc1)CNc1nc(nc(OCC(F)(F)F)n1)N2 [Example 1301]	100 to 1000 nM
O=C(O)c1ccc2cc1OCCCCCCOc1ccc(cc1)CNc1nc(nc(OCC(F)(F)F)n1)N2 [Example 1302]	1000 to 50000 nM
COC(=O)CCNC(=O)c1ccc2cc1OCCCCCCOc1ccc(cc1)CNc1nc(nc(OCC(F)(F)F)n1)N2 [Example 1303]	100 to 1000 nM
COC(=O)C(NC(=O)c1ccc2cc1OCCCCCCOc1ccc(cc1)CNc1nc(nc(OCC(F)(F)F)n1)N2)C1CCCN(C(=O)OC(C)(C)C)C1 (centres unmarked) [Example 1304]	0.1 to 100 nM
CC(C)(C)OC(=O)N1CCC(CNC(=O)c2ccc3cc2OCCCCCCOc2ccc(cc2)CNc2nc(nc(OCC(F)(F)F)n2)N3)C1 (centres unmarked) [Example 1305]	0.1 to 100 nM
CC(C)(C)OC(=O)N1CCCC1CNC(=O)c1ccc2cc1OCCCCCCOc1ccc(cc1)CNc1nc(nc(OCC(F)(F)F)n1)N2 (centres unmarked) [Example 1306]	0.1 to 100 nM
COC(=O)[C@H](CCNC(=O)OC(C)(C)C)NC(=O)c1ccc2cc1OCCCCCCOc1ccc(cc1)CNc1nc(nc(OCC(F)(F)F)n1)N2 [Example 1307]	0.1 to 100 nM
CCOC(=O)[C@@H]1CN(C(=O)OC(C)(C)C)C[C@H]1NC(=O)c1ccc2cc1OCCCCCCOc1ccc(cc1)CNc1nc(nc(OCC(F)(F)F)n1)N2 [Example 1308]	0.1 to 100 nM
COC(=O)[C@@H](CNC(=O)OC(C)(C)C)NC(=O)c1ccc2cc1OCCCCCCOc1ccc(cc1)CNc1nc(nc(OCC(F)(F)F)n1)N2 [Example 1309]	100 to 1000 nM
COC(=O)C(NC(=O)c1ccc2cc1OCCCCCCOc1ccc(cc1)CNc1nc(nc(OCC(F)(F)F)n1)N2)C1CCN(C(=O)OC(C)(C)C)C1 (centres unmarked) [Example 1310]	0.1 to 100 nM
N=C(N)NCCC[C@H](NC(=O)c1ccc2cc1OCCCCCCOc1ccc(cc1)CNc1nc(nc(OCC(F)(F)F)n1)N2)C(N)=O [Example 1313]	0.1 to 100 nM
N=C(N)NCCCCNC(=O)c1ccc2cc1OCCCCCCOc1ccc(cc1)CNc1nc(nc(OCC(F)(F)F)n1)N2 [Example 1314]	0.1 to 100 nM
CCOC(=O)[C@H](CCCNC(=N)N)NC(=O)c1ccc2cc1OCCCCCCOc1ccc(cc1)CNc1nc(nc(OCC(F)(F)F)n1)N2 [Example 1317]	0.1 to 100 nM
NC(=O)C(Cc1ccccc1)NC(=O)c1ccc2cc1OCCCCCCOc1ccc(cc1)CNc1nc(nc(OCC(F)(F)F)n1)N2 (centres unmarked) [Example 1319]	0.1 to 100 nM
CCOC(=O)[C@H]1CN(C(=O)OC(C)(C)C)C[C@H]1NC(=O)c1ccc2cc1OCCCCCCOc1ccc(cc1)CNc1nc(nc(OCC(F)(F)F)n1)N2 [Example 1320]	0.1 to 100 nM
COC(=O)[C@H](CNC(=O)OC(C)(C)C)NC(=O)c1ccc2cc1OCCCCCCOc1ccc(cc1)CNc1nc(nc(OCC(F)(F)F)n1)N2 [Example 1321]	0.1 to 100 nM
COC(=O)[C@H](CNC(=O)c1ccccc1)NC(=O)c1ccc2cc1OCCCCCCOc1ccc(cc1)CNc1nc(nc(OCC(F)(F)F)n1)N2 [Example 1323]	0.1 to 100 nM
O=C(NC1CCNC1=O)c1ccc2cc1OCCCCCCOc1ccc(cc1)CNc1nc(nc(OCC(F)(F)F)n1)N2 (centres unmarked) [Example 1324]	0.1 to 100 nM
CC(C)(C)OC(=O)N[C@@H](CCNC(=O)c1ccc2cc1OCCCCCCOc1ccc(cc1)CNc1nc(nc(OCC(F)(F)F)n1)N2)C(=O)OC(C)(C)C [Example 1325]	0.1 to 100 nM
N=C(N)NCCC[C@H](NC(=O)c1ccc2cc1OCCCCCCOc1ccc(cc1)CNc1nc(nc(OCC(F)(F)F)n1)N2)C(=O)O [Example 1402]	0.1 to 100 nM
N=C(N)NC[C@H](NC(=O)c1ccc2cc1OCCCCCCOc1ccc(cc1)CNc1nc(nc(OCC(F)(F)F)n1)N2)C(=O)O [Example 1403]	0.1 to 100 nM

same assay, conditions: Hepatitis C virus, Huh-7, 48 h, numeric value; HCV pseudoparticles genotype 1a (H77C), Huh7 cells, luciferase 2 days after infection, average of duplicates

Structure (SMILES)	EC50
COC(=O)c1ccc2cc1OCCOCCOCCOc1ccc(cc1)CNc1nc(nc(OCC(F)(F)F)n1)N2 [Example 1007]	9840 nM
CN(C)CC(C)(C)CNC(=O)c1ccc2cc1OCCCCCCCCOc1ccc(cc1)CNc1nc(nc(OCC(F)(F)F)n1)N2 [Example 1010]	5.14 nM
O=C1COCC(=O)NCc2cccc(c2)Nc2nc(nc(OCC(F)(F)F)n2)NCCN1 [Example 1015]	3060 nM
CC(C)(C)OC(=O)NC1(C(=O)O)CCN(C(=O)c2ccc3cc2OCCCCCCCCOc2ccc(cc2)CNc2nc(nc(OCC(F)(F)F)n2)N3)C1 (centres unmarked) [Example 1018]	5640 nM
CC(C)(C)OC(=O)N1CCC(CNC(=O)c2ccc3cc2OCCCCCCCCOc2ccc(cc2)CNc2nc(nc(OCC(F)(F)F)n2)N3)C1 (centres unmarked) [Example 1105]	49.1 nM

same assay, conditions: read-out: EC50

Structure (SMILES)	EC50
COC(=O)c1ccc2cc1OCCCCOC[C@H](c1ccccc1)Nc1nc(nc(OCC(F)(F)F)n1)N2 [Example 1003]	1000 to 50000 nM
O=C(O)c1ccc2cc1OCCCCOC[C@H](c1ccccc1)Nc1nc(nc(OCC(F)(F)F)n1)N2 [Example 1004]	1000 to 50000 nM
C=C1CNCCNc2nc(nc(OCC(F)(F)F)n2)Nc2cccc(c2)CNC1 [Example 1016]	1000 to 50000 nM
COC(=O)c1ccc2cc1OCCCC=CCCCOc1ccc(cc1)CNc1nc(nc(OCC(F)(F)F)n1)N2 [Example 1019]	100 to 1000 nM
O=C(O)c1ccc2cc1OCCCC=CCCCOc1ccc(cc1)CNc1nc(nc(OCC(F)(F)F)n1)N2 [Example 1020]	1000 to 50000 nM
